Results taken from patent US20050234073A1, “Methods of inhibiting inflammation” (priority 2003, published 2005).

Assays:
MODE-K cells = test: MODE-K cell presentation of α-galcer to DN32 cells (IL-2 ELISA); format: cell-based, mouse; details: MODE-K cells incubated with inhibitor (10 uM)
Protocol: FIG. 17A is a bar chart showing IL-2 production of MODE-K cells cultured in the presence of BMS212122 (MTPi) or vehicle were incubated with α-galcer for 3 hours, washed, and co cultured with DN32 cells. IL-2 concentrations were measured by ELISA of 24 hour culture supernatants.
APCs were incubated with 100 ng/mL α-galcer (kindly provided by Dr. H. Ploegh) for 3 hours, washed three times in PBS and aliquoted into a 96 well plate at 10^6 cells/mL. DN32 cells were added at 1:1 E:T ratio unless otherwise indicated. CD4^+ cells were isolated from spleens of OT-II transgenic mice using positive selection on CD4 magnetic beads (Miltenyi Biotec) and incubated with APCs and 100 μg/mL ovalbumin. The 24.8 NKT cell line was incubated with APCs in the absence of added antigen at E:T=2:1 unless otherwise indicated. Mouse IL-2 production was assessed by ELISA (OptEIA, BD PharMingen) of 24 or 40 hour culture supernatants. APCs were treated with BMS212122 (10 uM dissolved in DMSO; kindly provided by Bristol Myers Squibb, New Jersey) as indicated and washed prior to addition of T or NKT cells. […]
The relationship between MTP and CD1d in large intestinal epithelial cells (IECs) was determined. […]

moDCs = test: Flow cytometry of surface CD1d and MHC class I on human monocyte-derived DCs; format: cell-based; details: moDCs after 5 days in presence of inhibitor
Excerpt: FIG. 20F is a series of flow cytometric analysis showing surface staining of human monocyte-derived DCs were stained with 42.1 (CD1d), anti-HLA-A,B,C (MHC class I), or isotype control antibodies (dashed lines) after 4 days of differentiation in the presence of BMS212122 (gray lines) or vehicle control (black lines).
Bone marrow was extracted from the femurs of C57BL6 or MTPmx1cre mice, washed once in PBS and resuspended in R10 supplemented with culture supernatant from murine GM-CSF transfected cells for a final concentration of 200 U/mL GM-CSF. BMDCs were then cultured in bacteriological plates for 12-14 days as described. Differentiated cells were harvested by gentle pipetting, washed in PBS, and analyzed by flow cytometry for surface expression of CD11c and I-A^b. […] After 5 days cells were dislodged by gentle pipetting, analyzed by flow cytometry and assayed for antigen presentation.
Mouse cells were stained using the following antibodies: FITC-conjugated α-CD1d (1B1, PharMingen); PE-conjugated α-CD11c (HL3, PharMingen); FITC-conjugated α-1-A^d (AMS-32.1, PharMingen); PE-conjugated α-CD69 (H1.2F3, PharMingen); PE-conjugated α-B220 (RA3-6B2, PharMingen). […] Staining was performed in the presence of Via-Probe (PharMingen) and analyzed with a FACSort flow cytometer (Becton Dickinson). […]

With `Cc1ccc2c(nc(C)n2CCCCC2(C(=O)NCC(F)(F)F)c3ccccc3-c3ccccc32)c1NC(=O)c1ccccc1-c1ccc(C(F)(F)F)cc1` [BMS212122, 9-[4-[2,5-Dimethyl-4-[[[4′-(trifluoromethyl)[1,1′-biphenyl]-2-yl]carbonyl]amino]-1H-benzimidazol-1-yl]butyl]-N-(2,2,2-trifluoroethyl)-9H-fluorene-9-carboxamide] the “presentation of α-galcer to DN32 cells” value (MODE-K cells) was “decreased”, the “surface CD1d mean fluorescence intensity” value (moDCs; vehicle 4.2, p<0.05) was 3.3 and the “MHC class I mean fluorescence intensity” value (moDCs; vehicle 70) was 76.
